As usually defined, the IC50 is the concentration that inhibits the measured activity by half.

What all share (format): cell-based
One experiment has as its system FaDu CSC. The experiment in a line: Cancer stem cells, Cell Titer-Glo 72 hours (Test Example 3). The note with it: Homo sapiens, FaDu, 72 h. (ATP-based viability assays read luminescence as a measure of living cells.)
The test system of the next experiment is ACHN. The experiment in a line: Bulk cancer cells, Cell Titer-Glo 72 hours (Test Example 2). The note with it: Homo sapiens, ACHN, 72 h. On the procedure: (§1) Tubes of 3× drug (60 uM in 500 uL complete media) were prepared from 5 mM stock solutions in DMSO. […] To treat cells, 50 uL of drug from the dilution plate was removed and added to the cell plates. […] Cells were harvested 72 hours after drug addition using Cell Titer-Glo (Promega) and luminescence measured on a plate reader.

Another experiment relates to FaDu. Described as above. The note with it: Homo sapiens. As for the experimental part:
as §1

A further experiment deals with A549. Described as above. The note with it: Homo sapiens. On the procedure: as §1
A further experiment has as its system ACHN CSC. The experiment in a line: Cancer stem cells, Cell Titer-Glo 72 hours (Test Example 3). The note with it: Homo sapiens, ACHN, 72 h.
Another experiment deals with A549 CSC. The description is as above. The note with it: Homo sapiens.

As to `CCN(CC)CCNC(=O)c1c(C)[nH]c(/C=C2\C(=O)Nc3ccc(-c4nc5ccccc5s4)cc32)c1C` [Example 191], the IC50 worked out at 5.97 µM in the experiment with FaDu CSC; 9.53 µM in the experiment with ACHN; 4.93 µM with FaDu; 3.73 µM in the experiment with A549; 0.98 µM in the experiment on ACHN CSC; 4.13 µM with A549 CSC.

`CCN(CC)CCNC(=O)c1c(C)[nH]c(/C=C2\C(=O)Nc3cc(-c4cnc5ccccc5n4)ccc32)c1C` [Example 251]: the IC50 came to 2.24 µM with FaDu CSC; 10.9 µM in the experiment on ACHN; 7.45 µM in the experiment with FaDu; 7.07 µM with A549; 6.97 µM with ACHN CSC; 42.6 µM in the experiment on A549 CSC.

Regarding `CCN(CC)CCNC(=O)c1c(C)[nH]c(/C=C2\C(=O)Nc3ccc(-c4cncnc4)cc32)c1C` [Example 207], the IC50 in the experiment with FaDu CSC came to 10.1 µM; in the experiment on ACHN it was 3.66 µM; in the experiment with FaDu it was 4.55 µM; in the experiment on A549, 7.33 µM; with ACHN CSC, 0.55 µM; with A549 CSC it was 18 µM.

With `CCN(CC)CCNC(=O)c1c(C)[nH]c(/C=C2\C(=O)Nc3ccc(-c4ccc(OC)cc4C)cc32)c1C` [Example 267], the IC50 was found to be 1.4 µM with FaDu CSC; 2.26 µM in the experiment on ACHN; 2.31 µM in the experiment with FaDu; 1.74 µM with A549; 1.42 µM in the experiment with ACHN CSC; 4.61 µM in the experiment with A549 CSC.

Turning to `CCN(CC)CCNC(=O)c1c(C)[nH]c(/C=C2\C(=O)Nc3ccc(-c4ccc(C)cn4)cc32)c1C` [Example 184], the IC50 with FaDu CSC was determined as 0.22 µM; in the experiment with ACHN, 2.92 µM; in the experiment on FaDu it was 3.05 µM; in the experiment with A549, 6.51 µM; with ACHN CSC, 1.16 µM; in the experiment with A549 CSC, 3.38 µM.

For `CCN(CC)CCNC(=O)c1c(C)[nH]c(/C=C2\C(=O)Nc3ccc(-c4cnsc4)cc32)c1C` [Example 200], the IC50 in the experiment with FaDu CSC was determined as 3.42 µM; with ACHN it was 4.58 µM; in the experiment with FaDu, 3.17 µM; in the experiment on A549, 3.79 µM; with ACHN CSC it was 0.64 µM; in the experiment on A549 CSC, 6.66 µM.

As for `CCN(CC)CCNC(=O)c1c(C)[nH]c(/C=C2\C(=O)Nc3ccc(-c4cnccn4)cc32)c1C` [Example 180], the IC50 in the experiment with FaDu CSC stood at 0.23 µM; with ACHN it was 10.1 µM; with FaDu, 6.62 µM; in the experiment on A549, 10.6 µM; with ACHN CSC, 2.65 µM; with A549 CSC it was 13.2 µM.

Regarding `CCN(CC)CCNC(=O)c1c(C)[nH]c(/C=C2\C(=O)Nc3cc(-c4ccc(O)cc4C)ccc32)c1C` [Example 265], the IC50 in the experiment on FaDu CSC stood at 1.54 µM; in the experiment with ACHN, 2.53 µM; in the experiment with FaDu, 2.14 µM; in the experiment with A549, 2.76 µM; in the experiment on ACHN CSC it was 2.17 µM; in the experiment on A549 CSC, 7.55 µM.

On to `CCN(CC)CCN(C)C(=O)c1c(C)[nH]c(/C=C2\C(=O)Nc3ccc(-c4csc(-c5ccccc5)n4)cc32)c1C` [Example 129, (Z)-N-(2-(diethylamino)ethyl)-N,2,4-trimethyl-5-((2-oxo-5-(2-phenylthiazol-4-yl)indolin-3-ylidene)methyl)-1H-pyrrole-3-carboxamide], for which the IC50 was 3.6 µM in the experiment with FaDu CSC; 11.3 µM in the experiment on ACHN; 18.3 µM with FaDu; 9.94 µM in the experiment with A549; 0.69 µM with ACHN CSC; 10.5 µM in the experiment with A549 CSC.

Take `CCN(CC)CCNC(=O)c1c(C)[nH]c(/C=C2\C(=O)Nc3ccc(-c4csc(-n5ccnc5)n4)cc32)c1C` [Example 196]: the IC50 in the experiment with FaDu CSC turned out to be 21.7 µM; in the experiment on ACHN it was 9.57 µM; with FaDu, 5.57 µM; in the experiment with A549 it was 6.16 µM; in the experiment with ACHN CSC, 2.99 µM; in the experiment on A549 CSC it was 18.8 µM.

On to `CCN(CC)CCNC(=O)c1c(C)[nH]c(/C=C2\C(=O)Nc3ccc(-c4ccc(C#N)c(F)c4)cc32)c1C` [Example 269], for which the IC50 in the experiment on FaDu CSC came out at 3.48 µM; in the experiment with ACHN it was 13.3 µM; with FaDu, 14 µM; in the experiment with A549, 14.5 µM; in the experiment on ACHN CSC, 1.71 µM; in the experiment with A549 CSC, 12 µM.

Consider `Cc1cc(C)c(/C=C2\C(=O)Nc3ccc(-c4ccc(O)cc4C)cc32)[nH]1` [Example 261], for which the IC50 in the experiment with FaDu CSC was 14.4 µM; in the experiment on ACHN, 14.9 µM; in the experiment on FaDu it was 14.7 µM; in the experiment on A549, 12.5 µM; with ACHN CSC, 21.1 µM; in the experiment with A549 CSC, 36.8 µM.

As for `CCN(CC)CCNC(=O)c1c(C)[nH]c(/C=C2\C(=O)Nc3ccc(-c4cnc5cccnn45)cc32)c1C` [Example 179], the IC50 with FaDu CSC is 0.06 µM; with ACHN it was 3.64 µM; in the experiment with FaDu it was 1.74 µM; with A549, 3.66 µM; in the experiment with ACHN CSC it was 2.73 µM; in the experiment with A549 CSC it was 6.64 µM.

In the case of `Cc1cc(C)c(/C=C2\C(=O)Nc3ccc(-c4csc(-n5ccnc5)n4)cc32)[nH]1` [Example 215], the IC50 is 37.4 µM in the experiment on FaDu CSC; 8.84 µM in the experiment with ACHN; 14.5 µM in the experiment with FaDu; 9.31 µM in the experiment with A549; 2.72 µM with ACHN CSC; 35 µM in the experiment on A549 CSC.

With `CCN(CC)CCNC(=O)c1c(C)[nH]c(/C=C2\C(=O)Nc3cc(-c4ccc(C(=O)c5ccccc5)cc4)ccc32)c1C` [Example 264], the IC50 came out at 1.46 µM with FaDu CSC; 4.11 µM with ACHN; 4.46 µM with FaDu; 3.65 µM with A549; 1.63 µM in the experiment with ACHN CSC; 3.16 µM in the experiment on A549 CSC.

Regarding `CCN(CC)CCNC(=O)c1c(C)[nH]c(/C=C2\C(=O)Nc3ccc(-c4cc(-c5ccccc5)ccn4)cc32)c1C` [Example 198], the IC50 turned out to be 9.67 µM with FaDu CSC; 2.41 µM with ACHN; 2.58 µM in the experiment on FaDu; 1.5 µM in the experiment on A549; 0.9 µM in the experiment with ACHN CSC; 2 µM with A549 CSC.

On to `Cc1cc(C)c(/C=C2\C(=O)Nc3ccc(-c4n[nH]c5ccccc45)cc32)[nH]1` [Example 231], for which the IC50 turned out to be 5.33 µM in the experiment with FaDu CSC; 8.73 µM in the experiment with ACHN; 4.43 µM in the experiment with FaDu; 6.45 µM with A549; 3.1 µM in the experiment with ACHN CSC; 7.28 µM in the experiment on A549 CSC.

Consider `O=C1Nc2ccc(-c3csc(-c4ccccc4)n3)cc2/C1=C/c1ncc[nH]1` [Example 150], for which the IC50 with FaDu CSC is 2.5 µM; with ACHN it was 1.44 µM; with FaDu, 7.57 µM; with A549 it was 17.2 µM; with ACHN CSC, 2.91 µM; in the experiment on A549 CSC it was 2.31 µM.

For the compound `CCN(CC)CCNC(=O)c1c(C)[nH]c(/C=C2\C(=O)Nc3ccc(-c4ccncc4)cc32)c1C` [Example 208], the IC50 with FaDu CSC came to 16.2 µM; in the experiment on ACHN, 11.6 µM; with FaDu, 6.81 µM; in the experiment with A549 it was 7.07 µM; in the experiment on ACHN CSC, 2.14 µM; in the experiment with A549 CSC, 9.85 µM.

`CCN(CC)CCNC(=O)c1c(C)[nH]c(/C=C2\C(=O)Nc3ccc(-c4ncccc4C)cc32)c1C` [Example 203]: the IC50 turned out to be 20 µM with FaDu CSC; 4.15 µM in the experiment with ACHN; 7.67 µM in the experiment with FaDu; 4.14 µM in the experiment with A549; 1.88 µM in the experiment with ACHN CSC; 13.1 µM in the experiment on A549 CSC.

For the compound `CCN(CC)CCNC(=O)c1c(C)[nH]c(/C=C2\C(=O)Nc3ccc(-c4ccc5c(c4)CC(=O)N5)cc32)c1C` [Example 270], the IC50 worked out at 15.5 µM in the experiment with FaDu CSC; 18.9 µM in the experiment on ACHN; 25.4 µM in the experiment with FaDu; 19.7 µM in the experiment on A549; 20.8 µM with ACHN CSC; 29.2 µM with A549 CSC.

Regarding `CCN(CC)CCNC(=O)c1c(C)[nH]c(/C=C2\C(=O)Nc3cc(-c4cccc5ncccc45)ccc32)c1C` [Example 258], the IC50 in the experiment with FaDu CSC came to 2.64 µM; with ACHN, 2.66 µM; in the experiment with FaDu, 4.83 µM; in the experiment with A549 it was 2.88 µM; in the experiment with ACHN CSC, 0.42 µM; in the experiment with A549 CSC, 8.61 µM.

Consider `CCN(CC)CCNC(=O)c1c(C)[nH]c(/C=C2\C(=O)Nc3ccc(-c4nccc5ccccc45)cc32)c1C` [Example 187], for which the IC50 amounted to 0.03 µM with FaDu CSC; 5.05 µM in the experiment on ACHN; 2.13 µM in the experiment with FaDu; 3.18 µM in the experiment with A549; 0.71 µM with ACHN CSC; 13.9 µM in the experiment with A549 CSC.

As to `CCN(CC)CCNC(=O)c1c(C)[nH]c(/C=C2\C(=O)Nc3ccc(-c4ccc(C=O)cc4)cc32)c1C` [Example 266], the IC50 with FaDu CSC turned out to be 7.51 µM; in the experiment on ACHN it was 2.81 µM; in the experiment with FaDu it was 12.1 µM; with A549, 10.6 µM; in the experiment with ACHN CSC, 4.34 µM; in the experiment with A549 CSC it was 5.84 µM.

In the case of `CCN(CC)CCNC(=O)c1cc(C)c(/C=C2\C(=O)Nc3ccc(-c4csc(-c5ccccc5)n4)cc32)[nH]1` [Example 165], the IC50 in the experiment with FaDu CSC worked out at 3.13 µM; in the experiment on ACHN, 14.9 µM; in the experiment with FaDu, 11.4 µM; in the experiment on A549, 4 µM; in the experiment on ACHN CSC it was 4.04 µM; in the experiment with A549 CSC it was 26.7 µM.

Regarding `CCN(CC)CCNC(=O)c1c(C)[nH]c(/C=C2\C(=O)Nc3cc(-c4csc(-n5cccn5)n4)ccc32)c1C` [Example 254], the IC50 in the experiment on FaDu CSC was found to be 0.78 µM; in the experiment with ACHN, 2.6 µM; in the experiment on FaDu, 5.3 µM; in the experiment with A549, 5.8 µM; with ACHN CSC it was 0.17 µM; with A549 CSC it was 2.93 µM.

In the case of `CCN(CC)CCNC(=O)c1c(C)[nH]c(/C=C2\C(=O)Nc3ccc(-c4ccc(C(=O)O)s4)cc32)c1C` [Example 209], the IC50 in the experiment with FaDu CSC was 4.3 µM; in the experiment with ACHN it was 2.04 µM; in the experiment on FaDu, 1.21 µM; in the experiment on A549 it was 2.2 µM; in the experiment on ACHN CSC, 2.28 µM; with A549 CSC it was 8.82 µM.

Values taken from patent publication US20190241569A1, “3-(ARYL OR HETEROARYL) METHYLENEINDOLIN-2-ONE DERIVATIVES AS INHIBITORS OF CANCER STEM CELL PATHWAY KINASES FOR THE TREATMENT OF CANCER” (Boston Biomedical, Inc., priority 2013, published 2019).
